Usually IC50 stands for the concentration that inhibits the measured activity by half. A word on the Kd: it is a measure of binding affinity in units of concentration. A lower Kd goes with a tighter complex.

Marks after values point to notes of the source that are not given here.

Data set [1] has as its target T1, BacAef (Enterococcus faecalis, UniProt A0ACD6TE02). It is filed as biochemical. The following applies: DDM micelles; 20 mM Tris-HCl pH 7.4, 400 μM CaCl2, 150 mM NaCl, 0.1% DDM, 50 μM [14C]C55-PP, 10 min, 37 °C, TLC; EntC vs EntC1 p-value = 0.0007; read-out: IC50, BacAef C55-PP phosphatase activity.
For data set [2], the system named is E. faecalis EfΔbacA cells expressing BacAef D110A. Nature of the data set: survival test. It is filed as cell-based, Enterococcus faecalis. Conditions: 0.5 μM EntC, 30 min, 37 °C, three experiments.
A further data set deals with BacAef S26A (Enterococcus faecalis, UniProt A0ACD6TE02, S38A). Nature of the data set: ITC, BacAef S26A. Conditions: 20 °C. It is filed as binding. The method, then: The experiments were carried out at 20 °C.
(Isothermal titration calorimetry measures the heat released or taken up as one component is titrated into another.)

The next data set concerns the target BacAec (Escherichia coli, UniProt P60932). The following applies: highest concentration tested 100 μM.
Data set [3] deals with T1, BacAef. It is filed as binding. Conditions: DSC, BacAef 33 μM + peptides 66 μM, 60 °C/h, representative of triplicate. The method, then:
Thermal stability of BacA protein in different mixtures of peptides was performed by DSC on a MicroCal model VP-DSC (Malvern Panalytical, Malvern, UK). BacA (33 μM) was mixed with different mixtures of peptides at twice the BacA concentration (i.e. 66 μM). Each measurement was preceded by a baseline scan with the standard buffer. Scans were performed at 1 K/min (60 °C/h) temperature ramp between 30 °C and 100 °C. The heat capacity of the buffer was subtracted from that of the protein sample before analysis. The thermodynamic parameters were determined by fitting the data to the following equation: ΔCp(T)=Kd(T)ΔHcalΔHvH/[1+Kd(T)]^2RT^2 where Kd is the equilibrium constant for a two-state process, ΔHvH the enthalpy calculated based on a two-state process and ΔHcal the measured enthalpy.

The subject of data set [4] is E. faecalis EfΔbacA cells expressing BacAef D106A. As to the kind of experiment: survival test. Format: cell-based, Enterococcus faecalis. The following applies: 0.5 μM EntC, 30 min, 37 °C, three experiments.
In data set [5] the test system is E. faecalis EfΔbacA cells expressing BacAef K209A D110A. Nature of the data set: survival test. It is filed as cell-based, Enterococcus faecalis. Conditions: 0.5 μM EntC, 30 min, 37 °C, p ≤ 0.001, three experiments.
In data set [6] the test system is E. faecalis EfΔbacA cells expressing BacAef K209A D106A. Nature of the data set: survival test. Format: cell-based, Enterococcus faecalis. Conditions: 0.5 μM EntC, 30 min, 37 °C, p ≤ 0.01, three experiments.
In data set [7] the target is T1, BacAef. Nature of the data set: ITC, BacAef. Format: binding. The following applies: ITC, 20 °C.
Method: ITC experiments were performed with an ITC200 isothermal titration calorimeter from MicroCal (Malvern Panalytical, Malvern, UK). The experiments were carried out at 20 °C. The protein concentration in the microcalorimeter cell (0.2 ml) was 33 μM. Nineteen 2-μl injections of peptides at 400 μM were performed at intervals of 240 s while stirring at 500 rpm. To limit buffer mismatching effect between the cell and the syringe, and the heat-of-dilution effect for having glycerol in the protein solution, the latter were extensively dialyzed, prior to the ITC measurement, in a buffer containing 20 mM Tris-HCl pH 7.4, 200 mM NaCl, 0.1% DDM, to remove glycerol. Then, the dialysis buffer was used to dilute the EntC peptides to further limit buffer mismatching. The experimental data were fitted to theoretical titration curves with the software supplied by MicroCal (ORIGIN). This software uses the relationship between the heat generated by each injection and ΔH (enthalpy change in kcal/mol), Ka (the association binding constant in M^−1), n (the number of binding sites), total protein concentration and free and total ligand concentrations.

Sequence of BacAec (P60932 whole entry): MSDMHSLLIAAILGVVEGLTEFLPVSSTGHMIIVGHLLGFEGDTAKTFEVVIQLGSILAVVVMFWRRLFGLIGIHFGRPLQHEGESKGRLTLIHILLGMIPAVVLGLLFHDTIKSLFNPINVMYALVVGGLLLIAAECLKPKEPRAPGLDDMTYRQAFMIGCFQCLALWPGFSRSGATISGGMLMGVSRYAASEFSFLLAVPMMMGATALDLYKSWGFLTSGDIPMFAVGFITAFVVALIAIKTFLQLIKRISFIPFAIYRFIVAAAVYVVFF
Method for BacAec: The reconstitution of BacA and PgpB in liposomes was achieved through adapted protocols previously described ([48]). Liposomes were prepared by rehydrating a lipid film of DOPC: DOPG: DOPE (3 mg: 0.75 mg: 1.25 mg) after 4 h of desiccation by adding 1 ml of buffer (20 mM HEPES, pH 7.5, 50 mM NaCl, 15% glycerol). […] The lipid suspension underwent 10 freeze-thaw cycles in liquid nitrogen and was extruded through a 100 nm polycarbonate membrane (Millipore). Protein reconstitution was performed by destabilizing the liposomes with 5.5 mM Triton X-100 for 15 min. The protein was added at a final concentration of 15 μg/ml and the mixture was incubated at 4 °C for 15 min.
The liposomes were used to measure the C55-PP phosphatase activity of BacA in a membrane environment as follows. For each kinetic assay, 5 μl of a reaction mixture containing 20 μM C15-PP, 20 μM [^14C]C5-PP, 180 μM C5-PP in 20 mM HEPES, pH 7.5, 50 mM NaCl, and 15% glycerol were mixed with 5 μl of protein-free liposomes (as a control) or BacA-containing liposomes. The mixture was then supplemented with UppS at a final concentration of 0.2 mg/ml to initiate the enzymatic synthesis of C55-PP. The EntC peptides were added at various concentrations from a water solution. […] Substrates and products were separated and quantified by thin-layer chromatography as previously described for C55-PP phosphatase assay in detergent.

Consider Enterocin C [EntC], for which, on BacAef [1], the concentration for half-maximal inhibition (IC50) was determined as 400 ± 100 nM. Besides, the “% of survival” value in [2] is listed as 2.8 ± 1.0%; in [4] it was 1.6 ± 1.0%; in data set [5], 7.6 ± 1.0 ^e %; in data set [6] it was 14 ± 4.0 ^c %. Further, the n is listed as 0.80 ± 0.02 on BacAef S26A (400 μM into [BacAef S26A] 33 μM) and 0.90 ± 0.01 on BacAef [7] (peptides 400 μM into [BacAef] 33 μM, pH 7.4, 0.1% DDM, at least triplicate). In addition, the Kd on BacAef S26A (400 μM into [BacAef S26A] 33 μM, pH 7.4, 0.1% DDM, at least triplicate) came to 439 ± 125 nM; on BacAef [7] (peptides 400 μM into [BacAef] 33 μM, 20 mM Tris-HCl pH 7.4, 200 mM NaCl, 0.1% DDM, at least triplicate) it was 196 ± 47 nM. Also, the “-TΔS” value at BacAef S26A (into [BacAef S26A]) stood at 8.5 kcal/mol; at BacAef [7] (into [BacAef] 33 μM) it was 14.1 kcal/mol. Moreover, the ΔG on BacAef S26A (into [BacAef S26A]) is -8.5 kcal/mol; on BacAef [7] (into [BacAef] 33 μM), -9.0 kcal/mol. For the same substance, the results for the ΔH at BacAef S26A (into [BacAef S26A]) and at BacAef [7] (into [BacAef] 33 μM) were -17.0 kcal/mol and -23.1 kcal/mol, respectively. Also, the “inhibition of BacAec in liposomes” value at BacAec is listed as “no inhibitory effect”. The “melting temperature (Tm) of BacAef” value at BacAef [3] (30-100 °C, Tris-HCl pH 7.5, 0.1% DDM, BacAef alone 66.3 °C) amounted to 83.8 °C. Also, the “enthalpy of denaturation (ΔH) of BacAef” value at BacAef [3] (BacAef alone 26.7 kcal/mol) was found to be 83.7 kcal/mol.

The values are drawn from publication PMC12765074, “Mechanistic insights into enterocin C targeting the undecaprenyl phosphate recycling protein BacA” (The Journal of Biological Chemistry, 2025).
